Measurements from publication PMC10572855, “Phenotypic Test of Benzo[4,5]imidazo[1,2-c]pyrimidinone-Based Nucleoside and Non-Nucleoside Derivatives against DNA and RNA Viruses, Including Coronaviruses” (International Journal of Molecular Sciences, 2023).
Like-named read-outs stand apart in the source and are kept apart here.

Key:
[1] = Cytotoxicity in Huh7 cells, MTS assay; format: cell-based, Human; conditions: human, Huh7 cells, cell growth reduced by 50%
Method: (§1) Cells were seeded at a rate of 5 × 10^3 cells/well into 96-well plates and allowed to proliferate for 24 h. Then, a medium containing different concentrations of the test compounds, starting at 100 mM, was added. After 3 days of incubation at 37 °C, the cell count was determined with a Beckman Coulter counter or, alternatively, cell viability was determined with the colorimetric formazan-based MTS assay. […] The cytotoxic effects of the compounds were also assessed by evaluating the MCC (minimum cytotoxic concentration that causes a microscopically detectable alteration of cell morphology).

RSV (Long) = assay: Cytopathic effect reduction, RSV (Long); format: cell-based, Respiratory syncytial virus; conditions: reduction of virus-induced cytopathic effect by 50%, virus input 100 TCID50, read-out: Antiviral Activity (EC50) RSV Long
[2] = Cytotoxicity in HEL299 cells, MTS assay; format: cell-based, Human; conditions: human, HEL299 cells, cell growth reduced by 50%
Method: as §1

HCoV NL63 = assay: Cytopathic effect reduction, HCoV NL63; format: cell-based, Human coronavirus NL63; conditions: reduction of virus-induced cytopathic effect by 50%, virus input 100 TCID50, read-out: Antiviral Activity (EC50) HCoV NL63
HCoV 229E = assay: Cytopathic effect reduction, HCoV 229E; format: cell-based, Human coronavirus 229E; conditions: reduction of virus-induced cytopathic effect by 50%, virus input 100 TCID50, read-out: Antiviral Activity (EC50) HCoV 229E
HCoV OC43 = assay: Cytopathic effect reduction, HCoV OC43; format: cell-based, Human coronavirus OC43; conditions: reduction of virus-induced cytopathic effect by 50%, virus input 100 TCID50, read-out: Antiviral Activity (EC50) HCoV OC43
Huh7 cells = assay: Cytotoxicity in Huh7 cells, MTS assay; format: cell-based, Human; conditions: cell growth reduced by 50%
Method: as §1

HEL299 cells = assay: Cytotoxicity in HEL299 cells, MTS assay; format: cell-based, Human; conditions: cell growth reduced by 50%
Method: as §1

[3] = human respiratory syncytial virus

Structure (SMILES)	CC50 at 3 days [1] [µM]	EC50 (RSV (Long); [3]) [µM]	CC50 at 3 days [2] [µM]	EC50 (HCoV NL63; Human coronavirus NL63) [µM]	EC50 (HCoV 229E; Human coronavirus 229E) [µM]	EC50 (HCoV OC43; Betacoronavirus 1, OC43) [µM]	CC50 (Huh7 cells) [µM]	EC50 (RSV (Long)) [µM]	CC50 (HEL299 cells) [µM]	EC50 (HCoV NL63) [µM]	EC50 (HCoV 229E) [µM]	EC50 (HCoV OC43) [µM]
O=c1n([C@H]2C[C@H](O)[C@@H](CO)O2)ccc2nc3cc(O)ccc3n12 [Compound 2a, 7-hydroxy-2-((2R,4S,5R)-4-hydroxy-5-(hydroxymethyl)tetrahydrofuran-2-yl)benzo[4,5]imidazo[1,2-c]pyrimidin-1(2H)-one]	> 100	> 100	> 100	> 100	> 100	> 100						
O=c1n([C@@H]2O[C@H](CO)[C@@H](O)[C@H]2O)ccc2nc3cc(O)ccc3n12 [Compound 2b, 2-((2R,3R,4S,5R)-3,4-dihydroxy-5-(hydroxymethyl)tetrahydrofuran-2-yl)-7-hydroxybenzo[4,5]imidazo[1,2-c]pyrimidin-1(2H)-one]	> 100	> 100	> 100	> 100	> 100	> 100						
CCCCOc1ccc2c(c1)nc1ccn([C@H]3C[C@H](O)[C@@H](COC(c4ccccc4)(c4ccc(OC)cc4)c4ccc(OC)cc4)O3)c(=O)n12 [Compound 4a, 2-((2R,4S,5R)-5-((bis(4-methoxyphenyl)(phenyl)methoxy)methyl)-4-hydroxytetrahydrofuran-2-yl)-7-butoxybenzo[4,5]imidazo[1,2-c]pyrimidin-1(2H)-one]							> 40	> 100	> 40	> 100	> 100	> 100
CCCCCCOc1ccc2c(c1)nc1ccn([C@H]3C[C@H](O)[C@@H](COC(c4ccccc4)(c4ccc(OC)cc4)c4ccc(OC)cc4)O3)c(=O)n12 [Compound 4b, 2-((2R,4S,5R)-5-((bis(4-methoxyphenyl)(phenyl)methoxy)methyl)-4-hydroxytetrahydrofuran-2-yl)-7-(hexyloxy)benzo[4,5]imidazo[1,2-c]pyrimidin-1(2H)-one]							> 100	> 100	> 100	> 100	> 100	> 100
CCCCCCCCOc1ccc2c(c1)nc1ccn([C@H]3C[C@H](O)[C@@H](COC(c4ccccc4)(c4ccc(OC)cc4)c4ccc(OC)cc4)O3)c(=O)n12 [Compound 4c, 2-((2R,4S,5R)-5-((bis(4-methoxyphenyl)(phenyl)methoxy)methyl)-4-hydroxytetrahydrofuran-2-yl)-7-(octyloxy)benzo[4,5]imidazo[1,2-c]pyrimidin-1(2H)-one]							> 100	> 100	> 40	> 100	> 100	> 100
CCCCCCCCCCOc1ccc2c(c1)nc1ccn([C@H]3C[C@H](O)[C@@H](COC(c4ccccc4)(c4ccc(OC)cc4)c4ccc(OC)cc4)O3)c(=O)n12 [Compound 4d, 2-((2R,4S,5R)-5-((bis(4-methoxyphenyl)(phenyl)methoxy)methyl)-4-hydroxytetrahydrofuran-2-yl)-7-(decyloxy)benzo[4,5]imidazo[1,2-c]pyrimidin-1(2H)-one]							> 40	> 100	> 40	> 100	> 100	> 100
CCCCCCCCCCCCOc1ccc2c(c1)nc1ccn([C@H]3C[C@H](O)[C@@H](COC(c4ccccc4)(c4ccc(OC)cc4)c4ccc(OC)cc4)O3)c(=O)n12 [Compound 4e, 2-((2R,4S,5R)-5-((bis(4-methoxyphenyl)(phenyl)methoxy)methyl)-4-hydroxytetrahydrofuran-2-yl)-7-(dodecyloxy)benzo[4,5]imidazo[1,2-c]pyrimidin-1(2H)-one]							> 100	> 100	> 100	> 100	> 100	> 100
CCCCOc1ccc2c(c1)nc1ccn([C@@H]3O[C@H](COC(c4ccccc4)(c4ccc(OC)cc4)c4ccc(OC)cc4)[C@@H](O)[C@H]3O)c(=O)n12 [Compound 5a, 2-((2R,3R,4S,5R)-5-((bis(4-methoxyphenyl)(phenyl)methoxy)methyl)-3,4-dihydroxytetrahydrofuran-2-yl)-7-butoxybenzo[4,5]imidazo[1,2-c]pyrimidin-1(2H)-one]							> 100	> 100	> 100	> 100	> 100	> 100
CCCCCCOc1ccc2c(c1)nc1ccn([C@@H]3O[C@H](COC(c4ccccc4)(c4ccc(OC)cc4)c4ccc(OC)cc4)[C@@H](O)[C@H]3O)c(=O)n12 [Compound 5b, 2-((2R,3R,4S,5R)-5-((bis(4-methoxyphenyl)(phenyl)methoxy)methyl)-3,4-dihydroxytetrahydrofuran-2-yl)-7-(hexyloxy)benzo[4,5]imidazo[1,2-c]pyrimidin-1(2H)-one]							> 10	> 100	> 100	> 100	> 100	> 50
CCCCCCCCOc1ccc2c(c1)nc1ccn([C@@H]3O[C@H](COC(c4ccccc4)(c4ccc(OC)cc4)c4ccc(OC)cc4)[C@@H](O)[C@H]3O)c(=O)n12 [Compound 5c, 2-((2R,3R,4S,5R)-5-((bis(4-methoxyphenyl)(phenyl)methoxy)methyl)-3,4-dihydroxytetrahydrofuran-2-yl)-7-(octyloxy)benzo[4,5]imidazo[1,2-c]pyrimidin-1(2H)-one]							> 10	> 100	> 100	> 100	> 100	> 100
CCCCCCCCCCOc1ccc2c(c1)nc1ccn([C@@H]3O[C@H](COC(c4ccccc4)(c4ccc(OC)cc4)c4ccc(OC)cc4)[C@@H](O)[C@H]3O)c(=O)n12 [Compound 5d, 2-((2R,3R,4S,5R)-5-((bis(4-methoxyphenyl)(phenyl)methoxy)methyl)-3,4-dihydroxytetrahydrofuran-2-yl)-7-(decyloxy)benzo[4,5]imidazo[1,2-c]pyrimidin-1(2H)-one]							> 100	> 100	> 100	> 100	> 100	> 100
CCCCCCCCCCCCOc1ccc2c(c1)nc1ccn([C@@H]3O[C@H](COC(c4ccccc4)(c4ccc(OC)cc4)c4ccc(OC)cc4)[C@@H](O)[C@H]3O)c(=O)n12 [Compound 5e, 2-((2R,3R,4S,5R)-5-((bis(4-methoxyphenyl)(phenyl)methoxy)methyl)-3,4-dihydroxytetrahydrofuran-2-yl)-7-(dodecyloxy)benzo[4,5]imidazo[1,2-c]pyrimidin-1(2H)-one]							> 40	> 100	> 100	> 100	> 100	> 100
CCCCOc1ccc2c(c1)nc1cc[nH]c(=O)n12 [Compound 6a, 7-butoxybenzo[4,5]imidazo[1,2-c]pyrimidin-1(2H)-one]	> 100	> 100	> 100	> 100	> 100	> 100						
CCCCCCOc1ccc2c(c1)nc1cc[nH]c(=O)n12 [Compound 6b, 7-(hexyloxy)benzo[4,5]imidazo[1,2-c]pyrimidin-1(2H)-one]	> 100	> 100	> 100	> 100	> 100	> 100						
CCCCCCCCOc1ccc2c(c1)nc1cc[nH]c(=O)n12 [Compound 6c, 7-(octyloxy)benzo[4,5]imidazo[1,2-c]pyrimidin-1(2H)-one]	> 100	> 100	> 100	> 100	> 100	> 100						
CCCCCCCCCCOc1ccc2c(c1)nc1cc[nH]c(=O)n12 [Compound 6d, 7-(decyloxy)benzo[4,5]imidazo[1,2-c]pyrimidin-1(2H)-one]	> 100	> 100	> 100	> 100	> 100	> 100						
CCCCCCCCCCCCOc1ccc2c(c1)nc1cc[nH]c(=O)n12 [Compound 6e, 7-(dodecyloxy)benzo[4,5]imidazo[1,2-c]pyrimidin-1(2H)-one]	> 100	> 100	> 100	> 100	> 100	> 100						
